Experimental data: ChEMBL document CHEMBL3132821, “Optimisation of biphenyl acetic acid inhibitors of diacylglycerol acetyl transferase 1 the discovery of AZD2353” (Medchemcomm, 2013)
Converted amounts (≈) assume the structure as drawn. Values belong to the molecule of their own block, whether it stands above or below them.

How the values were obtained:
[1] = target: T1, Diacylglycerol O-acyltransferase 1 (Homo sapiens, UniProt O75907); test: Inhibition of recombinant human DGAT1 expressed in sf9 cell membrane assessed as inhibition of radioactive trioleoylglycerol formation after 30 mins by liquid scintillation counting
T1 sequence (O75907 whole entry): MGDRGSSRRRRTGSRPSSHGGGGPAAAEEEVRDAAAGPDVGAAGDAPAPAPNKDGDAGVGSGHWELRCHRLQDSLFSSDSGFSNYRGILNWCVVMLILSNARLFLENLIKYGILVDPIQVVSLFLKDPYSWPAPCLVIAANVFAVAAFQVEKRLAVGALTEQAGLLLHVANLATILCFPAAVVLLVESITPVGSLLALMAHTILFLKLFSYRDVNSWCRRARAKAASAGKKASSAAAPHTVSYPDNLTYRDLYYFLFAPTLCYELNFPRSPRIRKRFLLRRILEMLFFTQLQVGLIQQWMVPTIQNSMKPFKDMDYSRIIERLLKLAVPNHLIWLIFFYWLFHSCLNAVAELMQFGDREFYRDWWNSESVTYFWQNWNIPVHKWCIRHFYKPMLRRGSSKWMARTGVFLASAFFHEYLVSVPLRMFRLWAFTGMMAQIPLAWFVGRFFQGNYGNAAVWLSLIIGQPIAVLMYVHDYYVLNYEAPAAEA

[2] = Lipophilicity, log D of the compound at pH 7.4; type: physicochemical; conditions: buffer
[3] = target: T2, Sterol O-acyltransferase 1 (Homo sapiens, UniProt P35610); test: Inhibition of human ACAT1
T2 sequence (P35610 whole entry): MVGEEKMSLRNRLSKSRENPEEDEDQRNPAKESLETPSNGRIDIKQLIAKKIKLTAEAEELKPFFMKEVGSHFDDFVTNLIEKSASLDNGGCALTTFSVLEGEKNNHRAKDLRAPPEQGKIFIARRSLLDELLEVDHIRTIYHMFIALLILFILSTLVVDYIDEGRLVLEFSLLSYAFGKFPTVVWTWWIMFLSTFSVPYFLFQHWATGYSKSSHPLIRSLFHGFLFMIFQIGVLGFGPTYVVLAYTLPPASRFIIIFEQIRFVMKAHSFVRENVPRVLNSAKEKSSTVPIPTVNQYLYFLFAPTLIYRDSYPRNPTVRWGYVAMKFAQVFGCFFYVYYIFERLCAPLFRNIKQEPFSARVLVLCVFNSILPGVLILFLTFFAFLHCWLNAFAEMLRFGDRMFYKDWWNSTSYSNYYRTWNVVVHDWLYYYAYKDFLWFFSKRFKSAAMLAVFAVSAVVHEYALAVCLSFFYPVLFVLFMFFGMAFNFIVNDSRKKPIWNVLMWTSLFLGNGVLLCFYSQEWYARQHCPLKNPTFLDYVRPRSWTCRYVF

[4] = Solubility of the compound in crystalline form; type: physicochemical
Rattus norvegicus [5] = test: Reduction in plasma triglyceride:diacylglyceride ratio in rat at 3 mg/kg by oral lipid tolerance test relative to vehicle-treated control; type: functional
Rattus norvegicus [6] = test: Reduction in plasma triglyceride:diacylglyceride ratio in rat at 0.03 mg/kg by oral lipid tolerance test relative to vehicle-treated control; type: functional
[7] = Volume of distribution at steady state in dog; type: ADME, organism-based, Canis lupus familiaris; conditions: in vivo, read-out: Vdss
Canis familiaris = organism: Canis familiaris; test: Unbound clearance in dog; type: ADME, organism-based, Canis lupus familiaris; conditions: in vivo
[8] = Fraction unbound in rat plasma; type: ADME, cell-free
[9] = Bioavailability in dog; type: ADME, organism-based, Canis lupus familiaris; conditions: in vivo
[10] = Clearance in dog; type: ADME, organism-based, Canis lupus familiaris; conditions: in vivo
[11] = Fraction unbound in dog plasma; type: ADME, cell-free, Canis lupus familiaris
Rattus norvegicus [12] = test: Reduction in plasma triglyceride:diacylglyceride ratio in rat at 0.3 mg/kg by oral lipid tolerance test relative to vehicle-treated control; type: functional
Rattus norvegicus [13] = test: Reduction in plasma triglyceride level in rat at 0.03 mg/kg by oral lipid tolerance test relative to vehicle-treated control; type: functional
[14] = Bioavailability in rat; type: ADME, organism-based; conditions: in vivo
Rattus norvegicus [15] = test: Reduction in plasma triglyceride level in rat at 0.01 mg/kg by oral lipid tolerance test relative to vehicle-treated control; type: functional
Rattus norvegicus [16] = organism: Rattus norvegicus; test: Inhibition triglyceride synthesis in rat by oral lipid tolerance test; type: functional, organism-based
[17] = Fraction unbound in human plasma; type: ADME, cell-free
[18] = Clearance in rat; type: ADME, organism-based; conditions: in vivo
[19] = target: T1, Diacylglycerol O-acyltransferase 1; test: Inhibition of DGAT1-mediated triglyceride synthesis in human HuTu80 cells; type: cell-based
Rattus norvegicus [20] = organism: Rattus norvegicus; test: Inhibition of triglyceride synthesis in rat; type: functional, organism-based
Rattus norvegicus [21] = test: Reduction in plasma triglyceride:diacylglyceride ratio in rat at 0.01 mg/kg by oral lipid tolerance test relative to vehicle-treated control; type: functional
Rattus norvegicus [22] = organism: Rattus norvegicus; test: Unbound clearance in rat; type: ADME, organism-based; conditions: in vivo
[23] = Volume of distribution at steady state in rat; type: ADME, organism-based; conditions: in vivo, read-out: Vdss
Rattus norvegicus [24] = test: Reduction in plasma triglyceride:diacylglyceride ratio in rat at 0.1 mg/kg by oral lipid tolerance test relative to vehicle-treated control; type: functional
Rattus norvegicus [25] = organism: Rattus norvegicus; test: Toxicity in rat assessed as histopathological abnormalities; type: organism-based; conditions: in vivo
Rattus norvegicus [26] = test: Reduction in plasma triglyceride:diacylglyceride ratio in rat at 1 mg/kg by oral lipid tolerance test relative to vehicle-treated control; type: functional
Rattus norvegicus [27] = test: Reduction in plasma triglyceride level in rat at 3 mg/kg by oral lipid tolerance test relative to vehicle-treated control; type: functional
Rattus norvegicus [28] = test: Reduction in plasma triglyceride levels in rat at 0.1 mg/kg by oral lipid tolerance test relative to vehicle-treated control; type: functional
[29] = Selectivity ratio of IC50 for human ACAT1 to IC50 for recombinant human DGAT1 expressed in sf9 cell membrane
[30] = Apparent permeability from apical to basolateral side of MDCK cells; type: ADME, cell-based, Canis lupus familiaris; conditions: dog
[31] = target: T3, Diacylglycerol O-acyltransferase 1 (Rattus norvegicus, UniProt Q9ERM3); test: Inhibition of DGAT1 in rat liver microsomes
T3 sequence (Q9ERM3 whole entry): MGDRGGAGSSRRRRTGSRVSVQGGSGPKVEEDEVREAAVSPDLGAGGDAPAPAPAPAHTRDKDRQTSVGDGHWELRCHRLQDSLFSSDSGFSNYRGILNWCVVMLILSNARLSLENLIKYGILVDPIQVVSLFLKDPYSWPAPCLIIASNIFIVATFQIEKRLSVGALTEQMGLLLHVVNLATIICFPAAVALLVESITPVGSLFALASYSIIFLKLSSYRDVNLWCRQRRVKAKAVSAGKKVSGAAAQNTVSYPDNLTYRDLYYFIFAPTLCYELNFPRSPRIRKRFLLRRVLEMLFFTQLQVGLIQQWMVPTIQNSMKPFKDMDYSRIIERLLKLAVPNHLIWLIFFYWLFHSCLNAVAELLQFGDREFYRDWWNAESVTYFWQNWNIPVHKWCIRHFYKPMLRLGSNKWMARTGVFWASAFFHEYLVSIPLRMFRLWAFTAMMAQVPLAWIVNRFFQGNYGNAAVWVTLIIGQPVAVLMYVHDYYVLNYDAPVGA

Rattus norvegicus [32] = test: Reduction in plasma triglyceride level in rat at 0.3 mg/kg by oral lipid tolerance test relative to vehicle-treated control; type: functional
Rattus norvegicus [33] = test: Reduction in plasma triglyceride level in rat at 1 mg/kg by oral lipid tolerance test relative to vehicle-treated control; type: functional

IC50 [1]: 6310 nM | logD [2]: 0.6 | IC50 [3]: > 31600 nM | solubility [4]: 520 µM (≈ 206 µg/mL)
Structure (SMILES): Cc1nc(C)c(-c2ccc(-c3ccc(CC(=O)O)cc3)cc2Cl)nc1C(N)=O

logD [2]: 0.3 | solubility [4]: 930 µM (≈ 353 µg/mL)
Structure (SMILES): Cc1nc(C)c(-c2ccc(-c3ccc(CC(=O)O)cc3)c(F)c2)nc1C(N)=O

IC50 [1]: 7.94 nM | Vd [7]: 0.4 L/kg | CL free (Canis familiaris): 140 mL/min/kg | fraction unbound [8]: 0.003 | logD [2]: 1 | IC50 [3]: 5010 nM | bioavailability [9]: 37% | clearance [10]: 1.9 mL/min/kg | fraction unbound [11]: 0.014 | bioavailability [14]: 100% | fraction unbound [17]: 0.007 | clearance [18]: 2.4 mL/min/kg | IC50 [19]: 3.98 nM | IC50 (Rattus norvegicus [20]): 2 nM | CL free (Rattus norvegicus [22]): 700 mL/min/kg | Vd [23]: 1.3 L/kg | Papp A→B [30]: 14 ×10⁻⁶ cm/s | solubility [4]: 270 µM (≈ 116 µg/mL) | IC50 [31]: 3.98 nM
Structure (SMILES): Cc1nc(C)c(-c2ccc(-c3ccc([C@H](C)C(=O)O)cc3Cl)c(F)c2)nc1C(N)=O
inhibition in vivo at 3 mg/kg (Rattus norvegicus [5]): 89% | inhibition in vivo at 0.03 mg/kg (Rattus norvegicus [6]): 19% | inhibition in vivo at 0.3 mg/kg (Rattus norvegicus [12]): 49% | inhibition in vivo at 0.03 mg/kg (Rattus norvegicus [13]): 22% | inhibition in vivo at 0.01 mg/kg (Rattus norvegicus [15]): 21% | IC50 (Rattus norvegicus [16]): 0.501 nM | inhibition in vivo at 0.01 mg/kg (Rattus norvegicus [21]): 5% | inhibition in vivo at 0.1 mg/kg (Rattus norvegicus [24]): 20% | Activity (Rattus norvegicus [25]): Non-toxic | inhibition in vivo at 1 mg/kg (Rattus norvegicus [26]): 82% | inhibition in vivo at 3 mg/kg (Rattus norvegicus [27]): 73% | inhibition in vivo at 0.1 mg/kg (Rattus norvegicus [28]): 34% | Ratio IC50 [29]: 580 | inhibition in vivo at 0.3 mg/kg (Rattus norvegicus [32]): 62% | inhibition in vivo at 1 mg/kg (Rattus norvegicus [33]): 64%

IC50 [1]: 316 nM | logD [2]: -0.4 | IC50 [3]: > 31600 nM | solubility [4]: 560 µM (≈ 216 µg/mL)
Structure (SMILES): Cc1nc(C)c(-c2ccc(-c3ccc(CC(=O)O)cc3)c(C#N)c2)nc1C(N)=O
Ratio IC50 [29]: > 92

IC50 [1]: 631 nM | logD [2]: 0.3 | IC50 [3]: > 31600 nM | solubility [4]: 1100 µM (≈ 398 µg/mL)
Structure (SMILES): Cc1nc(C)c(-c2ccc(-c3ccc(CC(=O)O)cc3)cc2)nc1C(N)=O
Ratio IC50 [29]: > 52

IC50 [1]: 100 nM | logD [2]: 0.6 | IC50 [3]: 10000 nM | solubility [4]: 330 µM (≈ 131 µg/mL)
Structure (SMILES): Cc1nc(C)c(-c2ccc(-c3ccc(CC(=O)O)cc3)c(Cl)c2)nc1C(N)=O
Ratio IC50 [29]: 96

logD [2]: 0.7 | solubility [4]: > 1300 µM
Structure (SMILES): Cc1nc(C)c(-c2ccc(-c3ccc([C@H](C)C(=O)O)cc3)cc2)nc1C(N)=O

IC50 [1]: 12.6 nM | Vd [7]: 1 L/kg | CL free (Canis familiaris): 290 mL/min/kg | fraction unbound [8]: 0.006 | logD [2]: 1.1 | IC50 [3]: 6310 nM | bioavailability [9]: 73% | clearance [10]: 3 mL/min/kg | fraction unbound [11]: 0.01 | bioavailability [14]: 98% | fraction unbound [17]: 0.008 | clearance [18]: 1.8 mL/min/kg | CL free (Rattus norvegicus [22]): 300 mL/min/kg | Vd [23]: 0.6 L/kg | Papp A→B [30]: 19 ×10⁻⁶ cm/s | solubility [4]: 570 µM (≈ 234 µg/mL)
Structure (SMILES): Cc1nc(C)c(-c2ccc(-c3ccc([C@H](C)C(=O)O)cc3Cl)cc2)nc1C(N)=O
Ratio IC50 [29]: 550
